Data: article PMC9428149, “Tackling recalcitrant Pseudomonas aeruginosa infections in critical illness via anti-virulence monotherapy” (Nature Communications, 2022)
Converted amounts (≈) assume the structure as drawn. “And” between values parts separate entries of the source, which are not always exact repeats. Equal values may be shown once. Read-outs that look alike come from different tables or passages of the source.

Key:
[1] = system: MvfR-regulated small molecules in PA14; assay: Production of HAQs, 2-AA, DHQ and AA in PA14 cultures (LC-MS); conditions: for 2-AA / DHQ / HHQ / HQNO / PQS: Figure 5a; for 2-AA / DHQ / HHQ / HQNO / PQS / AA: replicates; for AA: Figure 5b; for activity at 50 µM / IC50 / inhibition at 50 µM: Pseudomonas aeruginosa
ΔmvfR biofilm = assay: Biofilm formation of ΔmvfR mutant (off-target); conditions: Pseudomonas aeruginosa, PA14, 24 h, read-out: Biofilm formation, ΔmvfR + compound; PA14 about 100; single replicates (Figure 4c)
Description: Biofilm was grown in the 96-well microtiter plate at 37 °C for 24 h containing M63 minimal media in the presence of 10 µM of the compounds or vehicle. The biofilm grown with the vehicle was considered as a control. The percentage value was calculated in comparison to the PA14 control. a–c Data represent at least n = 3, each dot on the graph represents one biological replicate. The number of biological replicates for each compound and strain is depicted in the graph. The error bars denote ±SEM.
The overnight grown starter culture was diluted 1:1000 in 5 mL LB media in a glass tube and was incubated at 37 °C and 200 rpm in an incubator shaker until the culture reached an OD600nm 3.0. The culture was then diluted at 1:100 in M63 minimal media supplemented with 0.2% glucose, 0.5% Casamino Acids, and 1 mM MgSO4. Initiation of the Biofilm formation was performed in the 96 well plates; 200 µL of diluted culture was added in the wells with (10 µM) or without compounds. The cultures were allowed to grow at 37 °C in static conditions for 24 hours. Thereafter, planktonic culture was removed from the wells, and wells were washed three times with distilled water (DW). Biofilm was stained with 0.1% crystal violet and incubated for 15 min at room temperature (RT). Access dye was removed from the wells and washed off three times with DW, and 200 µL ethanol: acetone (80:20) was added to the wells. The plate was incubated for 30 min at RT, and the OD was measured by spectrophotometry at 570 nm in the infinite F200 plate reader using the Magellan software (Tecan, Switzerland). Percent biofilm formation was calculated in comparison to PA14 culture that was grown in the absence of compounds.

[2] = system: 16 MDR P. aeruginosa clinical isolates; assay: Pyocyanin production in MDR clinical isolates; conditions: Pseudomonas aeruginosa, 18 h, Control about 100, replicates
Description: The over-day culture was grown to OD600nm 1.5., diluted again at 1:10,000 in 5 mL LB and incubated with 10 μM of the test compound or the vehicle control for 18 hours at 37 °C and 200 rpm in an incubator shaker. After 18 h, 1 mL of culture was centrifuged for 2 min at 20.000 x g. The supernatant was transferred to a new tube, 200 μL of this were loaded in a flat-bottom 96-well plate, and the pyocyanin levels were quantified by measuring at OD690nm in the infinite F200 plate reader using the Magellan software (Tecan, Switzerland). The same procedure was also followed for the pyocyanin production assessment for all the P. aeruginosa clinical isolates assessed in this study. The percent of pyocyanin was calculated compared to the PA14 culture grown in the absence of compounds.
Pyocyanin production was measured in 16 P.
aeruginosa clinical isolates 18hr post-growth in the presence or absence of 10 µM of each NAM
compound. The percent of pyocyanin production was calculated by comparing the same strain grown
in the presence of the vehicle control. b.

PA14 AT/P cells = assay: AT/P cells formation assay in PA14; type: cell-based, Pseudomonas aeruginosa; conditions: Pseudomonas aeruginosa, PA14, 24 h, read-out: inhibition of AT/P cells formation
MvfR protein (MvfRC87) = target: T1, MvfR protein (MvfRC87) (Pseudomonas aeruginosa, UniProt Q9I4X0); type: binding; conditions: SPR
T1 construct: The MvfRC87 protein purified as in Xiao et. al., 2006; made in house
Description: The selected compounds were tested for their ability to bind to MvfR. Target validation was carried out by using surface plasmon resonance (SPR). The MvfRC87 protein purified as in Xiao et. al., 2006[33] was covalently immobilized on a CM7 Series S sensor chip using an amine coupling reagent kit (GE Healthcare) at the range level of 3000 to 5000 response units (RU). RU was analyzed by Biacore T200 evaluation software 2.0 (GE Healthcare). The relative response units (RUs) 5 seconds before the end of the association were extracted from the double-reference-corrected sensor grams at different concentrations. These responses were plotted against their respective concentrations for MvfR inhibitor alone and in the presence of native MvfR ligand PQS and compared to the calculated responses for the mixture expected for different binding sites.

[3] = system: PA14 isogenic mutant ΔmvfR AT/P cells; assay: AT/P cell formation in ΔmvfR mutant (off-target); conditions: Pseudomonas aeruginosa, PA14, 24 h, read-out: AT/P cell formation, ΔmvfR + compound; PA14 about 100; single replicates (Figure 4b)
[4] = system: pyocyanin production in PA14; assay: Pyocyanin production assay; conditions: Pseudomonas aeruginosa
[5] = system: pqsA promoter (PA14 PpqsA-GFPASV); assay: pqsA-GFP reporter expression; type: cell-based, Pseudomonas aeruginosa
[6] = Solubility in iPBS pH 7.4 by HPLC; type: physicochemical; conditions: isotonic phosphate buffer (iPBS)
Description: Solubility of the 10 mM compounds dissolved in DMSO was tested in the isotonic phosphate buffer (iPBS) at pH 7.4 using High-Performance Liquid Chromatography (HPLC). For the preparation of iPBS phosphate-buffered saline tab (Sigma-Aldrich 08057-12Tab-F) is dissolved in 500 mL of deionized water and the final composition of the solution contains 10 mM PBS, 2.7 mM KCl, 140 mM NaCl and 0.05% Tween. A total 10 µL of the compound from a 10 mM stock solution in DMSO was added to the vial, and 190 µL of buffer was added to each vial and mixed with shaking at room temperature for 4 h. Thereafter the samples were filtered, and 160 µL of the sample was mixed with 40 µL of DMSO for the final injection. Ibuprofen (high solubility) and Progesterone (low Solubility) were used as standard compounds. Ammonium Acetate aqueous solution (50 mM, pH 7.4) and the acetonitrile were used as mobile phases A and B, respectively. The measurement of concentration was achieved by comparing of UV absorbance of the sample solution and the known standard solution following an HPLC separation using a generic fast gradient method. The solubility of each compound is expressed by the ratio of compound amount in the sample test solution to the amount of compound in the standard solution.

T1 sequence (Q9I4X0 87-332): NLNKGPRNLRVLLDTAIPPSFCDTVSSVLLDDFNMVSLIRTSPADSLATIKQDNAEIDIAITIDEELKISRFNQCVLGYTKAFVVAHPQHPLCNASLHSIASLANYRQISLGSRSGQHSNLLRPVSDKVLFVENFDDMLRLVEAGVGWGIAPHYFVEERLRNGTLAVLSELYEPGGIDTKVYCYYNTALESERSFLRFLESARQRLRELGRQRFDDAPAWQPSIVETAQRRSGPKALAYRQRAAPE

## N#Cc1ccc(NC(=O)C(F)C(=O)Nc2ccc(Oc3ccccc3)cc2)cc1 (stereo not shown) [D88]
[1]; Compound 4.88e-8 M
  2-AA: 20.87 and 7.96 and 12.86
  DHQ: 15.28 and 24.13 and 25.25
  HHQ: -10.38 and -9.83 and -4.34
  HQNO: 23.03 and 20.64 and 19.09
[1]; Compound 9.77e-8 M
  2-AA: 21.63 and 8.61 and -0.13
  DHQ: 23.53 and 26.23 and 29.13
  HHQ: 0.19 and 2.23 and -9.33
  HQNO: 18.24 and 19.63 and 16.60
  PQS: 1.00 and -2.02 and -4.38
[1]; Compound 1.95e-7 M
  2-AA: 4.17 and 23.60 and 8.88
  DHQ: 24.27 and 28.60 and 33.04
  HHQ: -0.13 and 9.98 and 9.62
  HQNO: 22.51 and 25.08 and 21.13
[1]; Compound 3.91e-7 M
  2-AA: 26.65 and 26.00 and 18.02
  DHQ: 19.73 and 32.57 and 33.17
  HHQ: 5.11 and 8.17 and 11.07
  HQNO: 30.53 and 30.32 and 29.72
  PQS: -1.07 and -0.58 and 0.13
[1]; Compound 7.81e-7 M
  2-AA: 26.65 and 26.00 and 18.02
  DHQ: 19.73 and 32.57 and 33.17
  HHQ: 5.11 and 8.17 and 11.07
  HQNO: 30.53 and 30.32 and 29.72
  PQS: -1.07 and -0.58 and 0.13
[1]; Compound 1.56e-6 M
  2-AA: 57.52 and 53.71 and 61.03
  DHQ: 42.56 and 47.41 and 47.02
  HQNO: 65.26 and 66.09 and 66.02
  PQS: 20.92 and 18.95 and 23.15
[1]; Compound 3.13e-6 M
  2-AA: 77.80 and 71.94 and 73.15
  DHQ: 23.18 and 25.25 and 33.98
  HHQ: 18.71 and 27.16 and 24.99
  HQNO: 83.76 and 83.46 and 82.00
  PQS: 64.68 and 63.03 and 59.62
[1]; Compound 6.25e-6 M
  2-AA: 94.51 and 93.72 and 94.23
  DHQ: 82.36 and 85.39 and 83.09
  HHQ: 97.83 and 98.02 and 97.82
  HQNO: 95.97 and 95.46 and 95.76
  PQS: 95.61 and 95.53 and 95.05
[1]; Compound 1.25e-5 M
  2-AA: 96.17 and 96.56 and 95.88
  DHQ: 89.15 and 89.66 and 90.01
  HHQ: 98.67 and 99.17 and 97.08
  HQNO: 97.36 and 97.63 and 97.60
  PQS: 98.30 and 97.73 and 97.38
[1]; Compound 2.5e-5 M
  2-AA: 96.54 (2×) and 95.16
  DHQ: 90.35 and 91.27 and 89.56
  HHQ: 99.13 (2×) and 96.58
  HQNO: 97.58 and 97.87 and 97.81
  PQS: 98.11 and 97.67 and 97.24
[1]; Compound 5e-5 M
  2-AA: 97.65 and 97.17 and 97.36
  DHQ: 92.04 and 92.63 and 92.02
  HHQ: 98.82 and 99.10 and 99.16
  HQNO: 98.11 and 98.35 and 97.80
  PQS: 97.51 and 97.36 and 96.79
[1]; Compound 1.25E-05 M
  AA: 599.608 and 615.624 and 726.139
[1]; Compound 1.56E-06 M
  AA: 43.3838 and 42.5844 and 52.2801
[1]; Compound 1.95E-07 M
  AA: 66.4944 and 66.9002 and 61.8554
[1]; Compound 2.50E-05 M
  AA: 648.607 and 690.995 and 748.985
[1]; Compound 3.13E-06 M
  AA: 37.3675 and 38.4724 and 34.81
[1]; Compound 4.88E-08 M
  AA: 60.2138 and 71.5203 and 96.3706
[1]; Compound 5.00E-05 M
  AA: 538.963 and 599.424 and 657.09
[1]; Compound 6.25E-06 M
  AA: 537.56 and 609.034 and 598.829
[1]; Compound 7.81E-07 M
  AA: 70.2961 and 63.8933 and 86.4668
[1]; Compound 9.77E-08 M
  AA: 72.0385 and 90.409 and 103.511
[1]; PA14, read-out: % Production 2-AA
  activity at 50 µM: 7%
[1]; PA14, read-out: % Production AA
  activity at 50 µM: 832%
[1]; PA14, read-out: % Production DHQ
  activity at 50 µM: 7%
[1]; PA14, read-out: % Production HHQ
  activity at 50 µM: 1%
[1]; PA14, read-out: % Production HQNO
  activity at 50 µM: 14%
[1]; PA14, read-out: % Production PQS
  activity at 50 µM: 4%
[1]; PA14, read-out: AA, dose-dependent production (IC50 curve)
  IC50: 4700 nM
[1]; PA14, read-out: HHQ production inhibition
  inhibition at 50 µM: 89 to 99%
[1]; PA14, read-out: HQNO production inhibition
  inhibition at 50 µM: 40 to 92%
[1]; PA14, read-out: IC50 against 2-AA production
  IC50: 1500 nM
[1]; PA14, read-out: IC50 against DHQ production
  IC50: 4140 nM
[1]; PA14, read-out: IC50 against HHQ production
  IC50: 3100 nM
[1]; PA14, read-out: IC50 against HQNO production
  IC50: 1300 nM
[1]; PA14, read-out: IC50 against PQS production
  IC50: 2100 nM
[1]; PA14, read-out: PQS production inhibition
  inhibition at 50 µM: 76 to 97%
[1]; PA14, read-out: inhibition of 2-AA production
  inhibition at 50 µM: 82 to 95%
[1]; PA14, read-out: inhibition of DHQ production
  inhibition at 50 µM: 82 to 96%
ΔmvfR biofilm
  activity at 10 µM: 43.6%
[2]; read-out: Pyocyanin production relative to Control, clinical isolate LGR-4325
  activity at 10 µM: 17.1%
[2]; read-out: Pyocyanin production relative to Control, clinical isolate LGR-4326
  activity at 10 µM: 8.91%
[2]; read-out: Pyocyanin production relative to Control, clinical isolate LGR-4327
  activity at 10 µM: 8.23%
[2]; read-out: Pyocyanin production relative to Control, clinical isolate LGR-4328
  activity at 10 µM: 27.7%
[2]; read-out: Pyocyanin production relative to Control, clinical isolate LGR-4330
  activity at 10 µM: 33.3%
[2]; read-out: Pyocyanin production relative to Control, clinical isolate LGR-4331 (first section, r117)
  activity at 10 µM: 12.7%
[2]; read-out: Pyocyanin production relative to Control, clinical isolate LGR-4331 (second section, r140)
  activity at 10 µM: 5.55%
[2]; read-out: Pyocyanin production relative to Control, clinical isolate LGR-4333
  activity at 10 µM: 10.5%
[2]; read-out: Pyocyanin production relative to Control, clinical isolate LGR-4343
  activity at 10 µM: 12.2%
[2]; read-out: Pyocyanin production relative to Control, clinical isolate LGR-4344
  activity at 10 µM: 12.7%
[2]; read-out: Pyocyanin production relative to Control, clinical isolate LGR-4348
  activity at 10 µM: 8.7%
[2]; read-out: Pyocyanin production relative to Control, clinical isolate LGR-4356
  activity at 10 µM: 10.8%
[2]; read-out: Pyocyanin production relative to Control, clinical isolate LGR-4362
  activity at 10 µM: 13.9%
[2]; read-out: Pyocyanin production relative to Control, clinical isolate LGR-4363
  activity at 10 µM: 17.7%
[2]; read-out: Pyocyanin production relative to Control, clinical isolate LGR-4364 (first section, r326)
  activity at 10 µM: 17.2%
[2]; read-out: Pyocyanin production relative to Control, clinical isolate LGR-4364 (second section, r349)
  activity at 10 µM: 19.4%
PA14 AT/P cells
  inhibition at 10 µM: ≥ 76%
MvfR protein (MvfRC87); Concentration 1.00E-05 M
  Response Unit (RU): 36.6 RU
MvfR protein (MvfRC87); Concentration 1.00E-06 M
  Response Unit (RU): 18.2 RU
MvfR protein (MvfRC87); Concentration 1.00E-07 M
  Response Unit (RU): 5.5 RU
MvfR protein (MvfRC87); Concentration 1.00E-08 M
  Response Unit (RU): 0.4 RU
MvfR protein (MvfRC87); Concentration 3.16E-06 M
  Response Unit (RU): 28.1 RU
MvfR protein (MvfRC87); Concentration 3.16E-07 M
  Response Unit (RU): 10.5 RU
MvfR protein (MvfRC87); Concentration 3.16E-08 M
  Response Unit (RU): 2.3 RU
[3]
  activity at 10 µM: 34.2%
[4]; PA14, 18 h, read-out: % Production Pyocyanin
  activity at 50 µM: 6%
[4]; PA14, read-out: IC50 pyocyanin production
  IC50: 530 nM
[5]; Pseudomonas aeruginosa, PA14, read-out: % Production pqsA-GFP
  activity at 50 µM: 2%
[5]; Pseudomonas aeruginosa, PA14, read-out: IC50 pqsA-GFP expression, PA14, 13 concentrations
  IC50: 1360 nM
[5]; read-out: IC50 pqsA-GFP expression, PA14, 13 concentrations
  IC50: 1310 nM
[6]; aqueous with cosolvent or surfactant or cyclodextrin, kinetic from dmso stock, iPBS pH 7.4, HPLC, read-out: Solubility (M) in PBS
  solubility at 4 h: 0.00049 M (≈ 191 µg/mL)
[6]; pH 7.4, HPLC, read-out: solubility
  solubility at 4 h: 0.00049 M (≈ 191 µg/mL)
